A short description of data set [1]: Selectivity index, ratio of IC50 for human THP1 cells to IC50 for Trypanosoma brucei overexpressing the type 1 nitroreductase. In kind it is toxicity. Particulars: read-out: Ratio IC50.
For data set [2], the system named is Trypanosoma brucei. The experiment in a line: Anti-parasitic activity against wild type Trypanosoma brucei. In kind it is functional, organism-based.
Data set [3] is described as follows: Selectivity index, ratio of IC50 for human SK-N-SH cells to IC50 for wild type Trypanosoma brucei. The data set is classed as toxicity. Particulars: read-out: Ratio IC50.
Data set [4] has as its system Trypanosoma brucei. As to the kind of experiment: Anti-parasitic activity against type 1 nitroreductase over-expressing Trypanosoma brucei. The data set is classed as functional, organism-based.
Data set [5] concerns the target Cruzipain (Trypanosoma cruzi) (UniProt P25779). As to the kind of experiment: Inhibition of recombinant Trypanosoma cruzi CL epimastigotes form cruzain at 100 uM using Z-FR-AMC as substrate preincubated for 10 mins followed by substrate addition measured after 5 mins by fluorimetric analysis relative to control.
For data set [6], the system named is Leishmania amazonensis. The experiment in a line: Anti-parasitic activity against amastigote stage of Leishmania amazonensis WHOM/00 LTB 0016 infected in mouse macrophages after 24 hrs. The data set is classed as functional, organism-based. Particulars: WHOM/00 LTB 0016, 24 h.
The nature of data set [7]: Selectivity index, ratio of CC50 for mouse macrophages to IC50 for promastigote stage of Leishmania amazonensis WHOM/00 LTB 0016. In kind it is toxicity. Particulars: read-out: Ratio CC50/IC50.
The test system of data set [8] is Leishmania amazonensis. The experiment in a line: Anti-parasitic activity against promastigote stage of Leishmania amazonensis WHOM/00 LTB 0016 after 96 hrs. The data set is classed as functional, organism-based. Particulars: WHOM/00 LTB 0016, 96 h.
Data set [9] can be described thus: Selectivity index, ratio of CC50 for mouse macrophages to IC50 for amastigote stage of Leishmania amazonensis WHOM/00 LTB 0016. In kind it is toxicity. As to conditions: read-out: Ratio CC50/IC50.
Another data set deals with Leishmania panamensis. As to the kind of experiment: Anti-parasitic activity against amastigote stage of EGFP-fused Leishmania panamensis MHOM/CO/87/UA140 infected in human U-937 cells after 72 hrs by flow cytometric analysis. In kind it is functional, organism-based. Particulars: MHOM/CO/87/UA140, U-937, 72 h. (A flow cytometer gives signals particle by particle.)
Data set [10] is described as follows: Selectivity index, ratio of EC50 for human U-937 cells to IC50 for amastigote stage of EGFP-fused Leishmania panamensis MHOM/CO/87/UA140. In kind it is toxicity. As to conditions: read-out: Selectivity Index.
For a further data set, the system named is HT-29. As to the kind of experiment: Cytotoxicity against human HT-29 cells assessed as reduction in cell viability after 72 hrs by MTT assay. The data set is classed as functional, cell-based. Particulars: HT-29, 72 h. (In general: Formazan colour is commonly taken as a measure of viable cells.)
Another data set relates to MDA-MB-231. The experiment in a line: Cytotoxicity against human MDA-MB-231 cells assessed as reduction in cell viability after 72 hrs by MTT assay. In kind it is functional, cell-based. Particulars: MDA-MB-231, 72 h.
In another data set the test system is MKN-45. As to the kind of experiment: Cytotoxicity against human MKN45 cells assessed as reduction in cell viability after 72 hrs by MTT assay. The data set is classed as functional, cell-based. As to conditions: MKN-45, 72 h.
The test system of data set [11] is A549. As to the kind of experiment: Cytotoxicity against human A549 cells assessed as reduction in cell viability after 72 hrs by MTT assay. The data set is classed as functional, cell-based. Particulars: A549, 72 h.
For data set [12], the system named is Trypanosoma cruzi. The experiment in a line: Anti-parasitic activity against trypomastigote stage of Trypanosoma cruzi Y infected in monkey LLC-MK2 cells after 24 hrs. In kind it is functional, organism-based. Particulars: LLC-MK2, 24 h.
Data set [13] is described as follows: Selectivity index, ratio of cytotoxic activity for monkey LLC-MK2 cells to IC50 for trypomastigote stage of Trypanosoma cruzi Y. In kind it is toxicity.
Data set [14] concerns A549. The experiment in a line: Cytotoxicity against human A549 cells assessed as reduction in cell viability after 24 hrs by MTT assay. The data set is classed as functional, cell-based. As to conditions: A549, 24 h.
The test system of the next data set is C6. As to the kind of experiment: Cytotoxicity against rat C6 cells assessed as reduction in cell viability after 24 hrs by MTT assay. The data set is classed as functional, cell-based. As to conditions: C6, 24 h.
Data set [15] is described as follows: Selectivity index, ratio of IC50 for HEK293T cells to IC50 for Trypanosoma brucei brucei AnTat1.1E. In kind it is toxicity. As to conditions: human.
Data set [16] relates to Trypanosoma brucei brucei. The experiment in a line: Anti-parasitic activity against Trypanosoma brucei brucei AnTat1.1E. The data set is classed as functional, organism-based.
Data set [17] can be described thus: Selectivity index, ratio of cytotoxic activity for African green monkey Vero cells to IC50 for amastigote stage of Trypanosoma cruzi Tulahuen CL2. The data set is classed as toxicity.
The subject of data set [18] is Trypanosoma cruzi. The experiment in a line: Anti-parasitic activity against amastigote stage of Trypanosoma cruzi Tulahuen CL2 infected in human MRC5 cells after 7 days by […] reporter gene assay. In kind it is functional, organism-based. As to conditions: Tulahuen CL2, MRC5, 168 h. (In general: A reporter such as luciferase makes a cellular process visible.)

Twelve molecules from ChEMBL document CHEMBL4308877, “Thiazole, thio and semicarbazone derivatives against tropical infective diseases: Chagas disease, human African trypanosomiasis (HAT), leishmaniasis, and malaria” (Eur J Med Chem, 2019) can be followed below.

≈ marks a conversion by molar mass, not a printed value.

Chain of Cruzipain (Trypanosoma cruzi) (P25779 123-467 limits assumed): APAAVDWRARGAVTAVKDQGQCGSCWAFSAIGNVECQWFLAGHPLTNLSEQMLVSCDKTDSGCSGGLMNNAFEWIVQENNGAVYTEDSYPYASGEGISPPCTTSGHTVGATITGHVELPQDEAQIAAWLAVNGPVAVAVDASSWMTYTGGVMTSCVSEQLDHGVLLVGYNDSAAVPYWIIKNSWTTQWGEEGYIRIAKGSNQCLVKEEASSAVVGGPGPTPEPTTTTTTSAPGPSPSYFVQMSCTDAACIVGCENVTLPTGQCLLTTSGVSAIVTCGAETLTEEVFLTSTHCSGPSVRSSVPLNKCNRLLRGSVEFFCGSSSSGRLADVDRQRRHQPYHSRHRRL

Usually IC50 stands for the concentration that gives 50% inhibition. Consider `CCCCC(=O)Nc1ncc([N+](=O)[O-])s1`, for which the selectivity ratio in [1] was over 175; in data set [3], over 23. Also, the IC50 stood at 4.32 µM in the data set with Trypanosoma brucei [2] and 0.57 µM in the data set on Trypanosoma brucei [4].
For orientation: inhibition means the percentage by which the read-out fell short of the control. On to `CC(C)c1ccc(/C=N/NC(N)=S)cc1`, for which the inhibition in data set [5] turned out to be 70%.
Take `NC(=S)N/N=C(/COc1ccccc1)c1ccccc1`: the IC50 came to 33 µM in the data set with Leishmania amazonensis [6] and 6 µM with Leishmania amazonensis [8]. For the same molecule, the selectivity ratio worked out at 71.1 in [7] and 4.94 in data set [9].
Regarding `CCCC(=O)Nc1ncc([N+](=O)[O-])s1`, the selectivity ratio in data set [1] is over 156; in data set [3], over 15. The IC50 worked out at 6.47 µM in the data set on Trypanosoma brucei [2] and 0.64 µM in the data set with Trypanosoma brucei [4].
As usually defined, the EC50 is the concentration at which the effect is half-maximal. With `O=C(N/N=C1\CC(c2ccccc2)Sc2ccccc21)c1ccncc1` (stereo not given), the EC50 in the data set with Leishmania panamensis was found to be 16.4 µM. Moreover, the selectivity ratio in data set [10] turned out to be 33.9.
`NC(=S)N/N=C(/COc1ccccc1)c1ccc(Cl)cc1`: the IC50 amounted to 40.3 µM in the data set on Leishmania amazonensis [6] and 4.9 µM in the data set with Leishmania amazonensis [8]. For the same molecule, the values for the selectivity ratio in data set [7] and in data set [9] were 22.8 and 2.77, respectively.
Take `COc1cc2c(Oc3ccc(/C=N/NC(=O)Nc4ccccc4F)cc3F)ccnc2cc1OCCCN1CCCCC1`: the IC50 was 0.059 µM in the data set with HT-29, 0.77 µM in the data set on MDA-MB-231, 0.016 µM in the data set with MKN-45 and 0.009 µM with A549 [11].
`CCC1S/C(=N/N=C(/COc2ccccc2)c2ccc(Br)cc2)NC1=O` (stereo not given) displayed an IC50 in the data set with Trypanosoma cruzi [12] of 4 µM. Further, the selectivity ratio in data set [13] is over 57.9.
As for `Cc1c(CO)c(CO)c2n1[C@@H](c1ccccc1)SC2`, the IC50 is 12 µg/mL (≈ 43.6 µM) in the data set with A549 [14] and 3.83 µg/mL (≈ 13.9 µM) in the data set with C6.
With `COc1ccc(/C(COc2ccccc2)=N\NC(N)=S)cc1`, the IC50 in the data set on Leishmania amazonensis [6] turned out to be 34.3 µM; in the data set on Leishmania amazonensis [8], 3.5 µM. The selectivity ratio in data set [7] amounted to 44.4; in data set [9] it was 4.5.
With `CCOC(=O)c1ccc(-n2sc3ccccc3c2=O)cc1`, in data set [15], the selectivity ratio was over 267. The IC50 in [16] stood at 0.937 µM.
Turning to `CCOc1cccc2sc(N(Cc3cccnc3)C(=O)C3CCCCC3)nc12`, in [17], the selectivity ratio was over 200. Also, the IC50 in the data set with Trypanosoma cruzi [18] is 0.16 µM.
